Assay results from patent US7504537B2, “Hydroxamic acid derivative and MMP inhibitor containing the same as active ingredient” (Dainippon Sumitomo Pharma Co., Ltd., priority 2001, dated 2009).

What was measured:
Format in all cases: biochemical
MMP-3 = target: T1, MMP-3 (Homo sapiens, UniProt P08254); experiment: Test 1 Test on MMP-3 inhibiting activity (fluorogenic peptide substrate); details: activated MMP-3, 37° C.; read-out: MMP-3 inhibition activity value
T1 construct: C-terminal truncated cDNA in which the cDNA encodes human prostromelysin; made in house; host or cells: E. coli
Protocol: Test 1 Test on MMP-3 Inhibiting Activity
C-terminal truncated cDNA in which the cDNA encodes human prostromelysin, was subcloned (proMMP-3, cDNA sequence in Nature, 348, 699-704 (1990)), was expressed in E. coli and then, the expressed protein was purified in accordance with the method described in Biochemistry 30, 6476-6483 (1991). proMMP-3 activation was carried out by treating with 1 mM 4-aminophenyl mercuric acetate for 60 minutes at 37° C.
Enzyme activity test was conducted by the method of C. G. Knight (FEBS Lett., 296(3), 263-266 (1992)).
(§1) A mixture of activated MMP-3 (20 nM, 10 μl), buffer solution (70 μl, pH 7.5 solution containing 100 mM Tris-HCl solution, 10 mM calcium chloride solution, 100 mM sodium chloride solution and 0.05% Brij-35 solution), MOCAc-Pro-Leu-Gly-Leu-A2pr(DNP)-Ala-Arg-NH2 in 0.1% DMSO solution (100 μM, 10 μl) and a test compound in DMSO solution was incubated for 1.5 hours at 37° C. The mixture was put on a 96 well-plate (100 μl/well) and the plate was cultured at 37° C. The enzyme activity in the presence of the compound was measured based on fluorescence intensity (λex 320 nm, λem 405 nm), and IC50 was calculated.

MMP-9 = MMP-9 (Homo sapiens, UniProt P14780); experiment: Test 4 MMP-9 inhibiting activity test (biotin labeled gelatin); details: activated human MMP-9, biotin labeled gelatin; read-out: MMP-9 inhibition activity value
Protocol: Test 4 MMP-9 Inhibiting Activity Test
A mixture of buffer solution (190 μl; pH 7.5 solution containing 50 mM Tris-HCl solution, 0.5 m sodium chloride solution and 5 mM calcium chloride solution), human MMP-9 (10 μl) and trypsin solution (20 μl; trypsin 3 mg in activated buffer (5 ml)) was incubated at 37° C. for 10 minutes. Thereto was added aprotinine solution (20 μl; aprotinine (3 mg) in buffer (5 ml)) and the mixture was incubated at 37° C. for 10 minutes, followed by addition of buffer (2 ml). The mixture was preserved under cooling with ice until use.
A mixture of DMSO solution (2 μl) containing definite concentration of the compound, biotin labeled gelatin (188 μl) and activated MMP-9 solution (10 μl) was put on a 96 well-assay plate (protein nonabsorbance type), well agitated, and incubated at 37° C. for 1 hour. This solution was transferred to Streptavidin-coating plate, and agitated at 15° C. to 30° C. for 30 minutes. And then the solution was washed with TTC buffer solution (200 μl) three times. Thereto was added Streptavidin-POD (200 μl) and the mixture was agitated at 15° C. to 25° C. for 60 minutes, followed by washing with TTC buffer (200 μl) three times. Then, ABTS solution (200 μl) was added thereto and after standing at room temperature for 40 minutes, furuorescence intensity was measured at 405 nm and IC50 was calculated.
In case of the above test, DMSO (2 μl) was used as a control instead of a sample solution. In the case of a blank, DMSO (2 μl) instead of the sample solution and the solution (10 μl) prepared in the same manner as preparation of […] but without adding 1.2 Uhuman MMP-9, instead of activated MMP-9 solution (10 μl), were used.

MMP-13 = target: T2, MMP-13 (Homo sapiens, UniProt P45452); experiment: Test 2 Test on MMP-13 inhibition activity (fluorogenic peptide substrate); details: activated MMP-13, 37° C.
T2 construct: a fragment of 767 bp encoding original 84 amino acids of complete MMP-13 and encoding 164 amino acids; made in house; host or cells: E. coli BL21 (DE3), pET11a
From the text: Test 2 Test on MMP-13 Inhibition Activity
In order to subcloning C-terminal truncated cDNA in which the cDNA encodes procollagenase-3 (proMMP-13) (J. Biol. Chem., 269(24), 16766-16773 (1994)), two synthesized oligonucleotide primer fragments: • (5′-[…]-3′ and 5′-[…]-3′: In former the sequence for specific NdeI site (under line) including first methionine is included, and in latter terminal codon and BamHI site (under lined) are included.) were used with human cartilage cell cDNA library for PCR. Due to these primers and Pfu DNA polymelase (STRATAGENE) for PCR, there was obtained a fragment of 767 bp encoding original 84 amino acids of complete MMP-13 and encoding 164 amino acids. The said fragment was cut out with digestion by NdeI and BamHI, and the fragment was annealed to NdeI site and BamHI site of pET11a (STRATAGENE). The recombinant plasmid was transformed into E. coli BL21 (DE3) and the bacteria were cultivated. The crude cell extract was prepared according to the method of Biochemistry. The said extract was dialyzed with 20 mM Tris-HCl (pH 7.2)/5 mM CaCl2/0.02% NaN3 solution, treated with SP-sepharose HP column (1.6×10 cm, Amasham-Pharmacia biotec), and the eluting was carried out by liner gradient from 0 to 0.3 m of sodium chloride solution (50 ml) (partially purified proMMP-13 was eluted at about 0.2M.) The eluted fraction was dialyzed with 20 mM Tris-HCl (pH 7.9)/5 mM CaCl2/200 mM (NH4)2SO4/0.02% NaN3 solution, treated with phenylsepharose HP column (1.6×5 cm, Amersham-Pharmacia biotec), and the eluting was carried out by liner gradient from 0.2M to 0M sulfuric acid ammonium solution (purified proMMP-13 was eluted at about 50 mM.). The eluted fraction was concentrated by YM-5 ultrafilter membrane, and activated by 4-aminophenyl mercuric acetate. Activated MMP-13 was treated with gel filtration chromatography in accordance with the method of Biochemistry to be separated from propeptide. Inhibiting Test Method
Enzyme activity test was carried out by the method of G. Knight (FEBS Lett., 296(3), 263-266 (1992)).
as §1, with “MMP-13” for “MMP-3”, “Briji-35” for “Brij-35”, “μl/wel),” for “μl/well)”, “incubated” for “cultured”

MMP-14 (MT1-MMP) = target: T3, MMP-14 (MT1-MMP) (Homo sapiens, UniProt P50281); experiment: Test 5 MMP-14 (MT1-MMP) inhibiting activity test; details: human recombinant MT1-MMP, 37° C.; read-out: MMP-14 inhibition activity value
T3 construct: purchased Biogenesis, supplied by Cosmobio (Nakarai Tesku)
Protocol: Test 5 MMP-14 (MTI-MMP) Inhibiting Activity Test
Human recombinant MTI-MMP used the product prepared by Biogenesis and supplied by Cosmobio (Nakarai Tesku).
An assay buffer solution (70 μl, pH 7.5 solution containing 0.1M Tris-HCl solution, 0.1M calcium chloride solution, 10 mM sodium chloride solution and 0.05% Brij-35 solution), 0.1 w/w % a compound in DMSO (10 μl), MMP substrate solution (MOCAc-Pro-Leu-Gly-Leu-A2pr(DNP)-Ala-Arg-NH2 (Peptide Lab.) diluted with the assay buffer solution (50 μM, 10 μl)) and human recombinant MT1-MMP (0.4 pg/10 μl/well) were well agitated under stirring. The enzyme activity of the mixture was measured based on fluorescence intensity (λex 320 nm/λem 405 nm) by a fluorescence reader. After the mixture was incubated at 37° C. for 0.5 hour, the fluorescence intensity (λex 320 nm/λem 405 nm) was measured every hour, and IC50 was calculated.
The inhibition value was calculated by withdrawing average value of blank well from fluorescence mean value of well in which MT1-MMP was added. As the blank was used the mixed solution prepared by adding assay buffer (10 μl) instead of MT1-MMP solution.

T1 sequence (P08254 100-272 limits assumed): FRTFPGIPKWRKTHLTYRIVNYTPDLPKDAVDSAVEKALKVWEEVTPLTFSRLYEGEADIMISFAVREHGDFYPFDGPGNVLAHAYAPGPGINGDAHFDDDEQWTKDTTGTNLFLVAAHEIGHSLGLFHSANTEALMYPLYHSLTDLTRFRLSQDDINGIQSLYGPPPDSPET
Chain of MMP-9 (P14780 107-707 limits assumed): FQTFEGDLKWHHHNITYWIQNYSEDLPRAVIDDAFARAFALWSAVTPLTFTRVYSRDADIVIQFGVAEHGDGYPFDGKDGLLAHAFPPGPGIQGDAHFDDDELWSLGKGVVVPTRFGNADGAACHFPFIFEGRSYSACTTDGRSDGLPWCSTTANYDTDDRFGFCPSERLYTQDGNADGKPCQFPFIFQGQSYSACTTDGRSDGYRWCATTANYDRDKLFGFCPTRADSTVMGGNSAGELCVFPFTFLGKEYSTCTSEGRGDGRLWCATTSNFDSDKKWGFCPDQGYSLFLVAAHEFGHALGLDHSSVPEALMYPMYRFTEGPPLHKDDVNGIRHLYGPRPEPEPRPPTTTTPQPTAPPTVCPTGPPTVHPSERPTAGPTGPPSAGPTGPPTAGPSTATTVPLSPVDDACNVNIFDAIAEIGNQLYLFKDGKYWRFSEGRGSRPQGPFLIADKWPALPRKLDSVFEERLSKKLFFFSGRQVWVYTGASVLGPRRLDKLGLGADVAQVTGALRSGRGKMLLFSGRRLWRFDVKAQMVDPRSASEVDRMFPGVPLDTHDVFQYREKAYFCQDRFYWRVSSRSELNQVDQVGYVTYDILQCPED

CC(C)CN(CC(=O)NO)S(=O)(=O)c1ccc(Oc2ccc(S(C)(=O)=O)cc2)cc1 [Example 5, N′^1′-Hydroxy-N′^2′-isobutyl-N′^2′-({4-[4-(methylsulfonyl)phenoxy]phenyl}sulfonyl)glycinamide]
IC50 (MMP-3): 15.4 nM
IC50 (MMP-9): > 100 nM
IC50 (MMP-13): 1.3 nM
IC50 (MMP-14 (MT1-MMP)): 105 nM
